Data set [1] has as its system middle cerebral artery. Kind of data set: Argon laser photothrombotic occlusion of middle cerebral artery (Example 1). Format: in vivo, rat (male Wistar). The text has this:
Male Wistar rats, each weighing 280 to 330 gm, were anesthetized with 1.5% halothane and maintained on a 70:30 mixture of nitrous oxide and oxygen delivered by a closely fitting Mylar face mask (Watson et al., J. Neurosurg., 66:748-754, 1987, the disclosure of which is hereby incorporated by reference and relied upon). After separation of the temporal musculature, the middle cerebral artery was exposed via a small subtemporal craniectomy produced by a high-speed drill under an operating microscope; the dura was left intact. The common carotid arteries were exposed bilaterally by a midline incision extending from the mental process to the sternal notch; the sternocleidomastoid muscle was then retracted laterally to expose the underlying artery. Bleeding from the operative site was controlled with pressure and Gelfoam. The animal was then prepared for irradiation by filling the surgical cavity with saline, just submerging the exposed blood vessel. The saline solution was kept clear by frequent suction and irrigation. The femoral arteries were exposed by bilateral inguinal incisions and were prepared for irradiation in a fashion similar to that described above.
Thrombus development and subsequent occlusion of the middle cerebral artery were easily observed during irradiation owing to wall transparency. The irradiated segment emitted a bright orange fluorescence (as viewed through an interference filter which rejected the 514.5 nm argon line); this was attributed to rose bengal uptake by red blood cell membranes and binding to plasma proteins such as albumin. As the irradiation proceeded, the fluorescence became yellowish and less intense owing to the accumulation of platelets and exclusion of red blood cells from the developing thrombus. Complete occlusion was signaled by exclusion of red blood cells from the arterial segments both distal and proximal to the irradiated portion, leaving a single colorless segment 7 to 10 arterial diameters in length.
Ultrastructural studies were carried out at either 30 minutes or 7 days following irradiation. Animals were perfused transcardially with 0.9% sodium chloride solution followed by 2% paraformaldehyde and 2.5% glutaraldehyde in a 0.1 M sodium phosphate buffer. Perfusion pressure was monitored throughout the procedure and was maintained at 100 mm Hg. After perfusion fixation, the femoral and common carotid arteries were isolated and placed in fixative for an additional 2 hours. To isolate the middle cerebral artery, the brain was first removed from the cranial vault and placed in fixative for a 2-hour period. Next, the whole brain was placed in phosphate-buffered 1% osmium tetroxide for 2 minutes.
The blood vessels were then postfixed in Millonig's phosphate-buffered 1% osmium tetroxide for 1 hour. Specimens chosen for transmission electron microscopy were dehydrated in ethanol and propylene oxide and embedded in Poly-Bed 812 as previously described (Dietrich et al., J Neuropathol. Exp. Neurol., 43:72-83, 1984). Sections 1 μm thick were cut with glass knives on a Sorvall ultra-microtome and stained with toluidine blue. To characterize the occlusive material more completely, ultra-thin sections stained with uranyl acetate and lead citrate were examined with a Zeiss EM-10C electron microscope. The blood vessels chosen for scanning electron microscopy analysis were examined under a dissecting microscope and cut longitudinally with a scalpel blade to expose the luminal surface. The blood vessels were then dehydrated in graded ethanols and placed in Freon. The tissue was critical-point dried, coated with gold, and examined and photographed with a JEOL JSM-35C scanning electron microscope.

Data set [2] relates to fibrinogen. Kind of data set: Immunofluorescence study of thrombus composition, fibrinogen. Details: species or system rat. The procedure: (§1) Following incubation with primary antibody for one hour, FITC-conjugated goat anti-mouse IgG and goat anti-mouse IgG antibodies (Sigma Chemical Co., St. Louis, Mo.) were used as secondary antibodies for anti-fibrinogen and anti-Factor VIII, respectively. The sections were observed by epi-illumination with a Nikon Microphot-FX microscope.

The test system of data set [3] is middle cerebral artery (MCA). Kind of data set: He-Ne laser photochemically induced MCA thrombosis (Example 7). Format: in vivo, rat (male Sprague-Dawley). The procedure: Normally fed male Sprague-Dawley rats weighting 280-330 gm were used. Anesthesia was induced with 4% halothane and maintained with 1.5% halothane, 70% N2 O and a balance of O2 delivered through a closely fitting face mask. Polyethylene catheters were inserted retrogradely into the right external carotid artery and right femoral artery and vein. The partial pressures of O2 and CO2 and the arterial pH were measured frequently. Rectal temperature was maintained at 37° C. by means of a heating pad.
Rats were mounted on a stereotaxic frame and the right MCA was exposed by a modified subtemporal approach. A portion of the jaw was removed, and the masseter muscle was retracted downward to facilitate exposure of the MCA. The mandibular joint was kept intact so as not to disturb normal feeding. To produce MCA occlusion in these studies, a low power He-Ne laser operating in the TEM^*01 (doughnut) mode at 0.8 mW and at a wavelength of 543.5 nm (PMS Electro-Optics, Boulder, CO.) was used. The efficiency of this laser in interacting with rose bengal dye is appreciable (58%) in that its emission wavelength is near the absorption maximum of rose bengal in tissue (562 nm). The animal was moutned in a stereotaxic frame, and its right side was tilted upward by 35° in order for the laser beam to strike the proximal MCA tangentially. The ring-shaped beam was focused transversely onto the exposed MCA by two crossed cylindrical lenses of 1- and 2-inch focal length. The resulting focused spot, rectangular in shape, was ~200 μm wide (spanning the diameter of the MCA perpendicular to its axis) and 40 μm high (parallel to the MCA axis).
MCA thrombosis was induced in two steps. First, the linear beam was focused transversely on the MCA segment just distal to the rhinal branch. The intensity of laser irradiation at the focal site was 10 W/cm^2. Rose bengal was then injected intravenously (30 mg/ml in saline, 0.67 ml/kg bw weight). An orange fluorescence was immediately observed in the irradiated MCA segment, and a white thrombus began to form within the fluorescent segment and gradually elongated rostrally. […]

Data set [4] relates to Factor VIII. Briefly: Immunofluorescence study of thrombus composition, Factor VIII. Set-up: species or system rat. The procedure: as §1
The conditions of data set [5]: rabbit, in vivo; cited from earlier work.

We go through one compound from patent US5053006A, “Method for the permanent occlusion of arteries” (priority 1990, dated 1991).

Bounds are passed on as bounds.

Regarding `O=C([O-])c1c(Cl)c(Cl)c(Cl)c(Cl)c1-c1c2cc(I)c(=O)c(I)c-2oc2c(I)c([O-])c(I)cc12.[Na+].[Na+]` [rose bengal], the “length of colorless occluded segment” value in data set [1] (complete occlusion) lay within 7 to 10 arterial diameters. Further, the “recanalization on saline bolus” value in data set [1] (five minutes after completion of irradiation) is given as “no recanalization was observed”. Besides, in data set [1] (rat, in vivo), the energy fluence is about 3.5 kJ/sq cm and the total energy deposited entry is reported as “approximately 1 J”. Besides, in data set [1] (ultrastructural analysis), the thrombus composition result was “composed primarily of aggregated platelets”. Also, the “irradiation time to effect complete occlusion” value in data set [1] (very low incident intensity) is at most 3 min. Moreover, the “fibrinogen in photoinduced MCA thrombi” value in data set [2] is on record as “abundance”. Further, the “time to complete MCA occlusion” value in data set [3] (30 mg/ml, 0.67 ml/kg i.v., 543.5 nm He-Ne, first irradiation) is at most 10 min. In data set [3] (end of second irradiation), the thrombus length entry is on record as “about 1.2 mm”. In data set [3] (first irradiation), the thrombus length is ~ 400 μm. Moreover, in data set [4], the “Factor VIII in photoinduced MCA thrombi” value was “abundance”. Moreover, the half-life in blood result in data set [5] is “three”.
